This note sets out measurements from patent US12409172B2, “Dosage regimen” (UNION therapeutics A/S, priority 2023, dated 2025).

Where two headings read alike, the source gives them in different places.

A short description of data set [1]: Clinical trial LP0058-1442 in healthy volunteers: PK of modified-release tablet vs immediate-release capsule. It is filed as in vivo, human. The settings on record: for AUC(0-t): human, plasma, oral, read-out: AUClast, NCA GM (CV %). On the procedure:
The modified-release formulation was studied in a clinical trial (LP0058-1442) and administered in a total of 36 healthy volunteers: 18 in part 1, 9 in part 2, and 9 in part 3. Twenty-seven (27) healthy volunteers received a single administration of 30 mg orismilast, and 9 subjects received multiple administrations over a period of 17 days with an up-titration up to a maximum of 60 mg BID. Part 1 of this study was to evaluate the key PK parameters of the new modified-release formulation compared to the reference capsule formulation with immediate release. Orismilast was rapidly absorbed from both formulations with median tmax values of 3.00 hours post-dose for the immediate-release capsule and 2.52 hours post-dose for the modified-release tablet. The individual tmax ranges were approximately 1 to 6 hours post-dose for the immediate-release capsule and 1 to 4 hours post-dose for the modified-release tablet. […] It can therefore be reasonably assumed that the safety profile resulting from systemic effects can be extrapolated from studies having investigated the immediate-release formulation and in particular, study LP0058-1072, a Phase 2a study including 36 patients with moderate to severe psoriasis vulgaris.
Following administration of modified release tablet as a single oral dose and after multiple doses up to 60 mg, orismilast reached a Cmax around 3 h under fasting state.

Data set [2] deals with adults with moderate-to-severe plaque-type psoriasis. Nature of the data set: Phase 2b dose-ranging study in psoriasis (Example 3): efficacy (PASI), incl. body-weight sub-group and post-hoc analysis. It is filed as in vivo, human. The text has this: • Percentage change in Psoriasis […] and Severity Index (PASI) score from Baseline at Week 16. Key Secondary Endpoints • Patients achieving 75% reduction in PASI (PASI75) response at Week 16. • Patients achieving a score of Clear (0) or Almost Clear (1) and an at least 2-point improvement in Investigator Global Assessment (IGA) at Week 16. […] Safety Endpoints: • The occurrence, severity, and seriousness of treatment-emergent adverse events (TEAEs) reported over the 16-week Treatment Period and the 4-week Follow-up Period. • Changes from Baseline in physical examination; vital sign measurements (body temperature, respiration rate, heart rate, and systolic and diastolic blood pressure measurements); and body weight over the 16-week Treatment Period and the 4-week Follow-up Period. • Changes from Baseline in electrocardiogram (ECG) findings over the 16-week Treatment Period and the 4-week Follow-up Period. • Changes from Baseline in safety laboratory values (haematology, serum chemistry, and urinalysis) over the 16-week Treatment Period and the 4-week Follow-up Period. • Hospital Anxiety and Depression Scale at each visit except Week 2. • Columbia-Suicide Severity Rating Scale (C-SSRS) at each visit except Weeks 1 and 2. Exploratory Endpoints: • Change from Baseline in Physician's Global Assessment of Fingernails (PGA-F) at Week 16. • Change in Scalp-Specific Investigator Global Assessment (ss-IGA) from Baseline at Week 16 in the subgroup of patients with Baseline score of at least 2 (mild scalp psoriasis). • Change from Baseline of scalp itch Numeric Rating Scale (NRS) at Week 16 in the subgroup of patients with Baseline score of at least 4 on the 11-point NRS. • Change from Baseline in joint pain NRS at Week 16 in patients with psoriatic arthritis (PsA) and a Baseline joint pain score of at least 4. • Change in cardiovascular risk factors at Week 16. The following parameters will be collected: weight, body mass index, waist and hip circumferences, blood pressure, fasting serum glucose, triglycerides, cholesterol (total and high-density lipoprotein/low-density lipoprotein fractions), and C-reactive protein. • Change from Baseline in skin biomarkers at Week 16 collected via tape stripping and analysed using proteomic methods. • Plasma levels of the drug and its metabolites at scheduled visits. Study Design
A multicentre, randomized, double-blind, placebo-controlled, parallel group, Phase 2b dose-ranging study designed to assess the efficacy and safety of modified-release orismilast compared with placebo in adult patients with moderate-to-severe plaque-type psoriasis. Efficacy and safety outcomes will be evaluated to select an appropriate orismilast dose for subsequent Phase 3 studies.
After a Screening visit up to 28 days before Baseline, 202 patients were assigned randomly in a 1:1:1:1 ratio to receive 1 of the 3 orismilast doses (20 mg, 30 mg, or 40 mg) or placebo twice daily (BID) for 16 weeks, with a 4-week Follow-up visit. Administration will begin at Baseline with a dose titration period. The maximum duration of study participation was approximately 24 weeks.
At Baseline and each visit from Week 4 onwards, PASI, BSA, IGA, and PSS were assessed. Quality of life was assessed by administration of DLQI at Baseline and at Weeks 16 and 20 visits. Additional efficacy parameters include: an ss-IGA, a Physician Global Assessment of fingernail psoriasis (PGA-F), and patient's joint pain NRS for those with a diagnosis of PsA. These parameters were assessed at Baseline and Weeks 16 and 20. Safety evaluations include adverse events (Aes), laboratory and vital sign assessments, physical examinations, as well as mood change evaluation by patient (Hospital Anxiety and Depression Scale) and suicidal ideation evaluation by Investigator (C-SSRS). A panel of cardiovascular risk factors were assessed at Baseline and Week 16. […]

Where [3] appears, read: post-hoc group 20 mg BID (<100 kg)/30 mg BID (≥100 kg), NRI.

In the case of `O=C(Cc1c(Cl)c[n+]([O-])cc1Cl)c1ccc(OC(F)F)c2c1OC1(CCS(=O)(=O)CC1)O2` [orismilast, 2-(3,5-dichloro-1-oxidopyridin-1-ium-4-yl)-1-[7-(difluoromethoxy)-1′,1′-dioxospiro[1,3-benzodioxole-2,4′-thiane]-4-yl]ethanone], the AUC(0-t) is 112 ng·h/mL in data set [1] (10 mg, 1442 - Part 3 (D1 = 10 mg), N 9); 482 ng·h/mL in data set [1] (30 mg, 1442 - Part 1 (MR, 30 mg), N 18); 480 ng·h/mL in data set [1] (30 mg, 1442 - Part 2 (Fast, 30 mg), N 9); 763 ng·h/mL in data set [1] (60 mg, 1442 - Part 3 (D17 = 60 mg), N 9). The “systemic exposure with high-fat meals” value in data set [1] (modified release tablet) is “significant increase”. The “mean percentage change in PASI from baseline to Week 16” value is −52.6% in data set [2] (20 mg BID), −61.2% in data set [2] (30 mg BID) and −63.7% in data set [2] (40 mg BID). Besides, the PASI-75 responders was found to be 35% in data set [2] (20 mg BID, NRI); 44% in data set [2] (30 mg BID, NRI); 46% in data set [2] (setting [3]). In addition, the PASI-90 responders turned out to be 23% in data set [2] (20 mg BID, NRI); 20% in data set [2] (30 mg BID, NRI); 29% in data set [2] (setting [3]). For the same compound, the PASI-100 responders in data set [2] (20 mg BID, NRI) was 8%; in data set [2] (30 mg BID, NRI) it was 8%; in data set [2] (setting [3]) it was 10%. Besides, in data set [2] (NRI), the “efficacy of post-hoc group 20 mg BID (<100 kg)/30 mg BID (≥100 kg) relative to all pre-specified treatment arms” value was “improved”. Also, the “efficacy of the 20 mg BID dose vs the 30 mg BID dose in patients weighing ≥100 kg” value in data set [2] (PASI50, PASI75, PASI90, weeks 4, 8, 12 and 16) is recorded as “less efficacious”. Further, the “efficacy of the 20 mg BID dose vs the 30 mg BID dose in patients weighing <100 kg at baseline” value in data set [2] (PASI75 and in particular PASI90) is recorded as “(similar or) more efficacious”. The “treatment effect versus placebo, percentage change in PASI from baseline to Week 16 (primary endpoint)” value in data set [2] (all doses (20, 30, 40 mg BID)) is on record as “statistically significant treatment effect”. In addition, the “efficacy (PASI50, PASI75, PASI90) of the 30 mg BID dose in patients weighing ≥100 kg compared to <100 kg at baseline” value in data set [2] (weeks 4, 8, 12 and 16) is “consistently higher”.
